These are literature values, as cited in US12390475B2, “Dry powder treprostinil for the treatment of pulmonary hypertension” (priority 2016, dated 2025).

Molecules are shown by their SMILES. Where two headings read alike, the source gives them in different places.

The conditions of data set [1]: aqueous titration with 20% ethanol as a co-solvent.
The conditions of data set [2]: various buffer solutions at various pH levels, octanol.

Take `CCCCC[C@H](O)CC[C@@H]1[C@H]2Cc3cccc(OCC(=O)[O-])c3C[C@H]2C[C@H]1O.[Na+]` [Treprostinil sodium]: the solubility entry is, setting by setting: (in acetone) “very slightly soluble”; (in acetonitrile) “practically insoluble”; (in ethanol) “very soluble”; (in ethyl acetate) “practically insoluble”; (in n-hexane) “practically insoluble”; (in water) “very soluble”.
In the case of `CCCCC[C@H](O)CC[C@@H]1[C@H]2Cc3cccc(OCC(=O)O)c3C[C@H]2C[C@H]1O` [Treprostinil, 2-[[(1R,2R,3aS,9aS)-2-hydroxy-1-[(3S)-3-hydroxyoctyl]-2,3,3a,4,9,9a-hexahydro-1H-cyclopenta[g]naphthalen-5-yl]oxy]acetic acid], in data set [1], the pKa – broadly, the negative logarithm of the acid dissociation constant – is on record as 4.5. For the setting “unbuffered water and low pH buffers”, the solubility entry is reported as “poorly soluble”. For the same compound, the distribution coefficient result in data set [2] is given as “distribution into octanol layers at all pH levels”.
